Reference: a melting point compilation (Tetko et al.; mined from patent text by program, amines drawn as free bases though some values may be those of a salt)

SMILES | melting point
CNC1CCN(c2nncc3cc(OC)c(OC)cc23)CC1 | 194 to 196 °C
CCOC(=O)c1cnoc1-c1ccc([N+](=O)[O-])cc1 | 73 to 76 °C
CC(=CC(NC=O)C(=O)OCc1ccccc1)CP(=O)(OC(C)C)OC(C)C (configuration not stated) | 50 to 58 °C
NC(=O)c1cc([N+](=O)[O-])c(Cl)cc1N1CC1 | 155 °C
CN1C(=O)CN=C(c2ccccc2F)c2cc(NC(=O)N3CC3)ccc21 | 186 to 190 °C
Cn1cnc(COc2nc3c(cc2-c2ccsc2)nnn3-c2ccccc2F)n1 | 174 to 176 °C
CCOC(=O)C1=C(N)NC(N)=C(C(=O)OCC)C1c1ccccc1-c1ccccc1 | 215 °C
CCOC(=O)C1=C(C)N=C(N)C(Cc2ccccc2)(C(=O)OCC)C1c1cccc([N+](=O)[O-])c1 (configuration not stated) | 208 °C
COCCOc1cc(N)c(Cl)cc1C(=O)OC | 121 to 122 °C
CCCCc1nn2c(C)cccc2c1Cc1ccc(Br)cc1 | 54 °C
NC(=O)N1CC(Oc2ccccn2)C1 | 133 to 137 °C
COc1cc(OC)c(-c2cc3ccccc3s2)cc1C=CC(=O)c1cc(OC)c(OC)c(OC)c1 | 194 to 196 °C
COc1ccc(C(=CC(=O)N2CCOCC2)c2ccc(NC(=O)c3ccc(Cl)cc3)cc2)cc1OC | 197 to 207 °C
CS(=O)(=O)c1ccc(-c2cnn(CC(F)(F)F)c(=O)c2Oc2cccnc2)cc1 | 191 to 193 °C
COC(=O)c1ccccc1S(=O)(=O)NC(=O)c1nc(OC)cc(OC)n1 | 163 to 165 °C
CCC(=O)NCc1nc(-c2cc(C(C)(C)C)c(O)c(C(C)(C)C)c2)cs1 | 82 to 83.5 °C
Cc1ccc(S(=O)(=O)CC(=O)NN=C2C(=O)Nc3ccc(I)cc32)cc1 | 257 °C
C=CS(=O)(=O)c1ccc(C)cc1 | 66 °C
CCCC=Cn1c2ccccc2c2ccccc21 | 47 °C
Cc1nc2c(cc1CO)CCCCC2 | 79 to 80 °C
COc1ccc(C(=O)Nc2ccccc2)cc1NCc1cccc(C(=O)O)c1 | 210 to 212 °C
CN1C(=O)CC[C@]2(C)c3ccc(-c4cc5ccccc5c5ccccc45)cc3CC[C@@H]12 | 218 to 220 °C
CCSc1cc(C(=O)O)cc(S(N)(=O)=O)c1Oc1ccccc1 | 225 to 227 °C
Clc1ccc2c(c1)C(c1ccccc1)=Nc1cccnc1N2 | 156 to 158 °C
CCOc1ccc(C2=NN(c3ccc(C(=O)N4CCN(c5ccc(C(F)(F)F)cn5)CC4)cc3)C(=O)[C@@H]3CC=CC[C@H]23)cc1OCC | 121 to 123 °C
CC(C)(CCCC(=O)O)c1ccc(O)c(C(=O)O)c1 | 136 to 138 °C

SMILES | melting point
O=C(NCCSc1ccccn1)Nc1cc(N2CC(c3ccccc3)OC2=O)ccn1 (configuration not stated) | 209 to 211 °C
O=C1Cc2cc(C(=O)CCl)c(Br)cc2N1 | 238 to 239 °C
CCOC(=O)c1cc(OC(C)=O)c2c(c1)c1ccccc1n2C | 123 to 125 °C
CC1(C(=O)C(CC2CCCCC2)n2cncn2)COCOC1 (configuration not stated) | 68 to 71 °C
Nc1cc(Cl)cc(Cc2cc(Cl)cc(N)c2O)c1O | 212 to 215 °C
CC(C)c1nn(-c2c(Cl)cc(C(F)(F)F)cc2Cl)c(Cl)c1-c1nc(C#N)c(C#N)[nH]1 | 96 to 99 °C
O=C(O)Cc1cc(Br)c2c(c1)CCC(C(F)(F)F)N2 (configuration not stated) | 111 to 112 °C
O=C(O)c1ccc(Oc2ccc(Cl)cc2)cc1 | 161 to 164 °C
Nc1cccc(OCc2ccc3ccccc3n2)c1 | 98 to 99 °C
CNC(=S)n1nc(Sc2ccc(C#N)cc2)nc1N | 200 to 203 °C
CC1OC(O)CC(NC(=O)C(F)(F)F)C1C (configuration not stated) | 132 to 134 °C
O=C1Nc2ccc(C#CCCN3CCC(Cc4ccccc4)CC3)cc2C1=O | 140 to 141 °C
O=C(O)CCCCCOc1ccccc1OCc1ccccc1 | 77 to 78 °C
COC(=O)c1nc(NC(C)=O)ccc1Oc1cc(OC)cc(OC)n1 | 128 to 130 °C
COc1ccccc1N1CCN(CCCOC(=O)Cc2csc(NC(=O)c3ccc(F)cc3)n2)CC1 | 100 °C
CCN1C(=O)Cc2ccc(C(O)CCl)c(O)c21 (configuration not stated) | 141 to 147 °C
NC(=O)c1ccccc1NCc1ccc(Cl)cc1 | 138 to 139 °C
CC(C)C(C)(NC(=O)c1nc2ccc(OC(F)F)cc2cc1C(=O)O)C(N)=O (configuration not stated) | 194 to 196 °C
C[C@@H](NC(=O)c1[nH]c2ccc(Cl)cc2c1S(=O)(=O)c1ccccc1)c1ccccc1 | 149 °C
C[C@H]1C(=O)N[C@@H](Cc2c[nH]c3ccccc23)C(=O)N1OCc1ccccc1 | 172 to 174 °C
CC12CC(=O)NN=C1c1ccc(Br)cc1C2 (configuration not stated) | 242 °C
COc1ccc(C#N)c(F)c1OC(C)=O | 90 to 91 °C
COc1cc2c(cc1C(C)=O)CC1(CCCCN1C(=O)C(F)(F)F)CC2 (configuration not stated) | 156 to 157 °C
CNC(=O)/C(=N/OC)c1ccccc1COc1ccc(C(F)(F)F)c(NC)n1 | 66 to 67 °C
CCCCCc1ccc(-c2ccc(C(C)OC(=O)CCC)cc2)cc1 (single isomer, unassigned; (+)) | 38.1 °C
O=C1NC(=S)SC1=Cc1ccc2c(c1)N(OCc1ccc(C(F)(F)F)cc1)C(=O)CO2 | > 300 °C

SMILES | melting point
COC(=O)N(C)c1cc(C(C)(C)C)no1 | 70.5 to 71.5 °C
CCCCC1=CC(O)(C(Br)Br)N(c2ccccc2)C1=O (configuration not stated) | 96 to 98 °C
O=C(NCCCCCCOC(=O)N1CCC2(CCCC2)CC1)OC1CCN(C(=O)Oc2ccc(Oc3ccccc3)cc2)CC1 | 83 to 85 °C
Cc1c(SCc2ccco2)ccnc1CSc1nc2ccccc2n1CCN(C)C | 87 to 89 °C
CCc1cc(CC)c(-c2c(OCS(C)(=O)=O)c(C)nn(C)c2=O)c(CC)c1 | 142 to 143 °C
C[C@](O)(CBr)C(=O)Nc1ccc([N+](=O)[O-])c(C(F)(F)F)c1 | 70 to 74 °C
Cc1cc2c(cc1Sc1ccc(C=O)cc1)C(C)(C)CCC2(C)C | 98 to 99 °C
CCC1c2nc[nH]c2CCN1C(=O)NC (configuration not stated) | 240 °C
Cc1cc(C(=O)CCc2cc(-c3ccc(C(F)(F)F)cc3)nn2Cc2ccccc2)ccc1OCC(=O)O | 175 to 180 °C
CC(C)NCC(O)COc1ccc2c(=O)cc(-c3cc(O)cc(O)c3)oc2c1 (configuration not stated) | 130 °C
C=C(c1ccccc1)c1cc2cc(OC)ccc2[nH]1 | 119 to 121 °C
CCn1cc(CS(C)(=O)=O)c(=O)c2ccccc21 | 162 to 164 °C
COc1cc(OC)c2c(c1)OC(C)(C)CC2=O | 104 to 105 °C
Cc1nccc(N2CCN(C(=O)N3CCN(C(=O)OC(C)(C)C)CC3)CC2)n1 | 212 to 213 °C
O=C1N(Cc2ccc(Cl)s2)c2ccccc2C12COc1cc3c(cc12)OCO3 (configuration not stated) | 145 to 146 °C
Cc1ccccc1S(=O)(=O)NC1CCc2sc(C3=NNC(=O)CC3)cc2C1 (configuration not stated) | 204 to 206 °C
Cc1nnc2c(-c3ccccc3)nccn12 | 178 to 180 °C
CCOC(=O)C(CCC#N)(C(=O)OCC)c1ccc([N+](=O)[O-])cn1 | 59.5 to 61 °C
CC(C)Oc1c(C(=O)NCc2ccccc2)oc2ccc(Cl)cc12 | 80 to 82 °C
N#Cc1nn(-c2c(Cl)cc(C(F)(F)F)cc2Cl)cc1-c1cc(Br)no1 | 145 °C
COCc1c[nH]c(-c2ccc(O)cc2)n1 | 191 to 192 °C
CC1(C)C(C(=O)O)N2C(=O)C(NC(=O)COc3ccccc3)C2S1=O (configuration not stated) | 160 to 161 °C
COc1cc2[nH]cc(C(=O)C(Cl)(Cl)Cl)c2cc1Br | 185 to 190 °C
COc1cccc(N2CCN(CCC(O)COc3ccccc3)CC2)c1 (configuration not stated) | 58 to 60 °C
Cc1nc(C(N)=O)c([N+](=O)[O-])n1-c1ccc(Cl)c(Cl)c1 | > 204 °C
COc1cc(O[C@@H](C)C(=O)O)c(Cl)cc1Cl | 114 to 115 °C

SMILES | melting point
Cc1cccc(S(=O)(=O)N2Cc3ccccc3C2)c1 | 175 to 177 °C
CCC(N)C(=O)Nc1c(C)cccc1C (configuration not stated) | 48 to 49 °C
O=c1[nH]c2ccsc2c(=O)n1CCN1CCN(c2ccccc2)CC1 | 215 to 217 °C
COC(=O)C(C)(C)C(Cc1ccc(OC)cc1)NS(=O)(=O)c1ccc(C)cc1 (configuration not stated) | 126 to 127 °C
COc1ccnc(CSc2nc3cc4c(cc3[nH]2)OC(F)(F)O4)c1 | 151 to 152 °C
COc1c(N2CCC(N(C)C)C(C)C2)c(F)c(N)c2c(=O)c(C(=O)O)cn(C3CC3)c12 (configuration not stated) | 210 °C
COc1ccc(-c2nc(Sc3ccc(Cl)c(Cl)c3)[nH]c2-c2ccc(OC)cc2)cc1 | 113 to 115 °C
COc1cc(OC)cc(-c2nc[nH]c2-c2ccc(OC)c(N)c2O)c1 | 132 to 134 °C
C=CC(C)(C)C(O)(COc1ccc(-c2ccccc2)cc1)Cn1cnnc1 (configuration not stated) | 171 to 173 °C
Nc1ccc(N)c(C(=O)c2ccccc2Cl)c1 | 30 to 40 °C
Cc1cccc2[nH]nnc12 | 145 to 146 °C
CC(=O)CC1CC2CN(C(=O)c3ccccc3)c3cccc(c32)C1=O (configuration not stated) | 117 to 119 °C
CCOC(=O)C1=C(C)NC(C)=C(C(=O)OCC)C1c1cccc(Cl)c1 | 142 to 144 °C
N#Cc1ccc(N(Cc2ccc(OS(N)(=O)=O)cc2)n2cnnc2)cc1-c1ccoc1 | 195 to 196 °C
O=C(NC1CN(C(C(=O)O)c2ccc(OC(=O)c3ccccc3)cc2)C1=O)C(=NOC(=O)c1ccccc1)c1ccccc1 (configuration not stated) | 119 to 123 °C
CC(=O)NC1(Cc2ccccc2)CCN(Cc2ccccc2)CC1 | 134 °C
Cc1cc(CN2CCN(c3ccc(C(=O)NC4CC4)cc3F)CC2)cc2c1OC(C)C(=O)N2 (configuration not stated) | 253 °C
COC(=O)Cc1csc2cc(-c3ccccc3)cn12 | 88 to 89 °C
CCOc1ccc(CC(CO)NC(=O)c2ccnc(Br)c2)cc1OCC (configuration not stated) | 97 to 99 °C
CC1CCCCN1c1ccc([N+](=O)[O-])cc1C(=O)c1ccc(Cl)cc1 (configuration not stated) | 142 °C
CCOC(=O)c1cn(C)c2cc(OC)ccc2c1=O | 198 to 200 °C
COc1ccc2c(c1)CCC(c1ccncc1)O2 (configuration not stated) | 88 to 91 °C
CC1(C)CC(=O)C2(CCC(=O)O)CC1C2 | 90 to 93 °C
CCN(C(=O)OC)c1c(C(=O)c2cnoc2C2CC2)ccc(Cl)c1Cl | 76 to 78 °C
